This experiment concerns the target T1, LPA1 (Homo sapiens, UniProt Q92633).
T1 construct: ProLink (β-galactosidase enzyme-donor fragment); host or cells: CHO-K1 (PathHunter EDG2 β-Arrestin cell line)
Nature of the experiment: LPA1 calcium flux assay (LPA1 functional antagonist assay). Particulars: PathHunter CHO-K1 EDG2 β-Arrestin cells, calcium indicator dye, stimulated with EC80 concentration of LPA, FLIPR. The experiment is classed as cell-based. How it is done: The effectiveness of compounds of the present invention as LPA1 inhibitors can be determined in an LPA1 functional antagonist assay as follows.
PathHunter® CHO-K1 EDG2 β-Arrestin Cell Line (Eurofins DiscoverX Corporation, Cat #93-0644C2) were plated overnight (11,500 cells/well) in poly-D-lysine coated 384-well microplates (Corning, Cat #356697) in AssayComplete™ Cell Plating 35 Reagent (Eurofins DiscoverX Corporation, Cat #93-0563R35). Following overnight culture, cells were loaded with calcium indicator dye from the HitHunter Calcium No WashPLUS Assay kit (Eurofins DiscoverX Corporation, Cat #93-0091) for 45 minutes at 37° C. Test compounds solubilized in DMSO (Sigma, Cat #276855) on 384-well polypropylene microplates (Greiner bio-one, Cat #781280) were then diluted to intermediate concentration with assay buffer [1×HBSS calcium/magnesium (Corning, Cat #21-023-CM) and 20 mM HEPES (Corning, Cat #25-060-Cl)] before addition to cells by Agilent Velocity 11 with a final concentration of 0.4% DMSO. After compound addition, assay plates were equilibrated to room temperature for 30 minutes. Cells were then stimulated by addition of EC80 concentration of LPA (Cat #, 10010093) in assay buffer containing [1×HBSS calcium/magnesium (Corning, Cat #21-023-CM), 20 mM HEPES (Corning, Cat #25-060-Cl), and 0.1% BSA (Sigma, Cat #A8806)] using Molecular Devices FLIPR Tetra PLUS®. IC50 values were determined by Chemical and Biological Information System from ChemInnovation Software, Inc.
The compounds of this invention were tested for their activity to inhibit LPA1 as determined in an LPA1 functional antagonist assay as described herein.

Bounds are passed on as bounds.

T1 sequence (Q92633 whole entry, the tested form may be a part): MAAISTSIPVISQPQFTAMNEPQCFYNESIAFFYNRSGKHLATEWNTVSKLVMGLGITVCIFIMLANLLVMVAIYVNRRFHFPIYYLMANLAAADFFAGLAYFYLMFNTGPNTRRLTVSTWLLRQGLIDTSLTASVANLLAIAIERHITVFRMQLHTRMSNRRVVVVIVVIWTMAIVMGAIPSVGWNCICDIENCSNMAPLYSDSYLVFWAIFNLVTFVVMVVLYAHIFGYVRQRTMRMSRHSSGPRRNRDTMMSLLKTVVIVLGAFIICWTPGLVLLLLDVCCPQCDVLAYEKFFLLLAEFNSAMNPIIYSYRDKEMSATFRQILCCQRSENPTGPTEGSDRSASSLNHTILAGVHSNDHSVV

For orientation: IC50 means the concentration that inhibits the measured activity by half. `CCCN(C)C(=O)OCc1c(-c2ccc(N3CC[C@@H](C(CC)C(=O)O)C3)c(CC)n2)nnn1C` (single isomer, unassigned) [Example 20, (R) or (S)-2-((S)-1-(2-ethyl-6-(1-methyl-5-(((methyl(propyl)carbamoyl)oxy)methyl)-1H-1,2,3-triazol-4-yl)pyridin-3-yl)pyrrolidin-3-yl)butanoic acid]: the concentration for half-maximal inhibition (IC50) was in the range of 0.5 to 5 µM.
On to `CCCc1ccc(=O)n(Cc2c(-c3ccc(N4CC[C@@H](C(CC)C(=O)O)C4)c(CC)n3)nnn2C)c1` (single isomer, unassigned) [Example 17, (S) or (R)-2-((S)-1-(2-ethyl-6-(1-methyl-5-((2-oxo-5-propylpyridin-1(2H)-yl)methyl)-1H-1,2,3-triazol-4-yl)pyridin-3-yl)pyrrolidin-3-yl)butanoic acid], for which the IC50 is 0.5 to 5 µM.
Take `CCc1nc(-c2nnn(C)c2COc2nccc(C3CCC3)n2)ccc1N1CC[C@H]([C@@H](C)C(=O)O)C1` [Example 9]: the IC50 was under 0.1 µM.
Then `CCCc1ccc(=O)n(Cc2c(-c3ccc(N4CCC(CC(=O)O)C4)c(C)n3)nnn2C)c1` (stereo not drawn) [Example 2, 2-(1-(2-methyl-6-(1-methyl-5-((2-oxo-5-propylpyridin-1(2H)-yl)methyl)-1H-1,2,3-triazol-4-yl)pyridin-3-yl)pyrrolidin-3-yl)acetic acid], with 0.5 to 5 µM; and `Cc1nc(-c2nnn(C)c2COc2nccc(C3CCC3)n2)ccc1C1CC(CC(=O)O)CCO1` (stereo not drawn) [Example 26, 2-(2-(6-(5-(((4-cyclobutylpyrimidin-2-yl)oxy)methyl)-1-methyl-11H-1,2,3-triazol-4-yl)-2-methylpyridin-3-yl)tetrahydro-2H-pyran-4-yl)acetic acid], with 0.1 to 0.5 µM; and `Cc1nc(-c2nnn(C)c2COc2nccc(C3CCC3)n2)ccc1C1CCCC(CC(=O)O)C1` (stereo not drawn) [Example 39, 2-{3-[6-(5-{[(4-cyclobutylpyrimidin-2-yl)oxy]methyl}-1-methyl-1H-1,2,3-triazol-4-yl)-2-methylpyridin-3-yl]cyclohexyl}acetic acid], with under 0.1 µM.
With `CCc1nc(-c2nnn(C)c2COc2cc(-n3cccn3)ncn2)ccc1C1CCOC(CC(=O)O)C1` (stereo not drawn) [Example 33, 2-(4-(6-(5-(((6-(1H-pyrazol-1-yl)pyrimidin-4-yl)oxy)methyl)-1-methyl-1H-1,2,3-triazol-4-yl)-2-ethylpyridin-3-yl)tetrahydro-2H-pyran-2-yl)acetic acid], the IC50 fell in the range of 0.1 to 0.5 µM.
Then `CCCc1ccc(=O)n(Cc2c(-c3ccc(C4CN(CC(=O)O)CC(F)(F)C4)c(C)n3)nnn2C)c1` (single isomer, unassigned) [Example 41, (S) or (R)-2-(3,3-difluoro-5-(2-methyl-6-(1-methyl-5-((2-oxo-5-propylpyridin-1(2H)-yl)methyl)-1H-1,2,3-triazol-4-yl)pyridin-3-yl)piperidin-1-yl)acetic acid], with 0.1 to 0.5 µM; and `CCc1nc(-c2nnn(C)c2COc2nccc(C3CCC3)n2)ccc1C1CCOC(CC(=O)O)C1` (single isomer, unassigned) [Example 36, 2-(4-(6-(5-(((4-cyclobutylpyrimidin-2-yl)oxy)methyl)-1-methyl-1H-1,2,3-triazol-4-yl)-2-ethylpyridin-3-yl)tetrahydro-2H-223,423-pyran-2-yl)acetic acid], with under 0.1 µM.
Consider `CCc1nc(-c2nnn(C)c2COc2nccc(C3CCC3)n2)ccc1N1CC[C@@H]([C@@H](C)C(=O)O)C1` [Example 8], for which the IC50 is under 0.1 µM.
For `CCc1nc(-c2nnn(C)c2COc2nccc(C3CCC3)n2)ccc1C1CCOC(CC(=O)O)C1` (single isomer, unassigned) [Example 35, 2-(4-(6-(5-(((4-cyclobutylpyrimidin-2-yl)oxy)methyl)-1-methyl-1H-1,2,3-triazol-4-yl)-2-ethylpyridin-3-yl)tetrahydro-2H-223,423-pyran-2-yl)acetic acid], the half-maximal inhibitory concentration (IC50) was under 0.1 µM.
As to `CCCc1ccc(=O)n(Cc2c(-c3ccc(N4CC[C@@H](C(CC)C(=O)O)C4)c(CC)n3)nnn2C)c1` (single isomer, unassigned) [Example 18, (R) or (S)-2-((S)-1-(2-ethyl-6-(1-methyl-5-((2-oxo-5-propylpyridin-1(2H)-yl)methyl)-1H-1,2,3-triazol-4-yl)pyridin-3-yl)pyrrolidin-3-yl)butanoic acid], the IC50 was 5 to 10000 µM.
Then `Cc1nc(-c2nnn(C)c2COc2nccc(C3CCC3)n2)ccc1N1CC[C@H](CC(=O)O)C1` [Example 5, (R)-2-(1-(6-(5-(((4-cyclobutylpyrimidin-2-yl)oxy)methyl)-1-methyl-1H-1,2,3-triazol-4-yl)-2-methylpyridin-3-yl)pyrrolidin-3-yl)acetic acid], with 0.1 to 0.5 µM; and `CCCc1ccc(=O)n(Cc2c(-c3ccc(C4COCC(CC(=O)O)C4)c(C)n3)nnn2C)c1` (stereo not drawn) [Example 29], with 0.5 to 5 µM; and `Cc1nc(-c2nnn(C)c2CN2CC(CC3CC3)N(C)C2=O)ccc1O[C@H]1CCC[C@H](C(=O)O)C1` (stereo partly drawn) [Example 42, (1S,3S)-3-((6-(5-((4-(cyclopropylmethyl)-3-methyl-2-oxoimidazolidin-1-yl)methyl)-1-methyl-1H-1,2,3-triazol-4-yl)-2-methylpyridin-3-yl)oxy)cyclohexane-1-carboxylic acid], with 0.1 to 0.5 µM.
The result for `CCCc1ccc(=O)n(Cc2c(-c3ccc(O[C@H]4CCC[C@H](C(=O)O)C4)c(CC)n3)nnn2C)c1` [Example 43, (1S,3S)-3-((2-ethyl-6-(1-methyl-5-((2-oxo-5-propylpyridin-1(2H)-yl)methyl)-1H-1,2,3-triazol-4-yl)pyridin-3-yl)oxy)cyclohexanecarboxylic acid] reads under 0.1 µM; that for `CCc1nc(-c2nnn(C)c2COc2nccc(C3CCC3)n2)ccc1[C@H]1CCC[C@@H](CC(=O)O)O1` (relative stereo) [Example 21, 2-(rel-(2S,6R)-6-(6-(5-(((4-cyclobutylpyrimidin-2-yl)oxy)methyl)-1-methyl-1H-1,2,3-triazol-4-yl)-2-ethylpyridin-3-yl)tetrahydro-2H-pyran-2-yl)acetic acid], under 0.1 µM; that for `CCCc1ccc(=O)n(Cc2c(-c3ccc(C4CCCC(CC(=O)O)C4)c(C)n3)nnn2C)c1` (stereo not drawn) [Example 38, 2-[3-(2-methyl-6-{1-methyl-5-[(2-oxo-5-propyl-1,2-dihydropyridin-1-yl)methyl]-1H-1,2,3-triazol-4-yl}pyridin-3-yl)cyclohexyl]acetic acid], 0.1 to 0.5 µM.
As to `CCCN(C)C(=O)OCc1c(-c2ccc(C3CCOC(CC(=O)O)C3)c(CC)n2)nnn1C` (stereo not drawn) [Example 30, 2-(4-{2-ethyl-6-[1-methyl-5-({[methyl(propyl)carbamoyl]oxy}methyl)-1H-1,2,3-triazol-4-yl]pyridin-3-yl}oxan-2-yl)acetic acid], the half-maximal inhibitory concentration (IC50) fell in the range of 0.5 to 5 µM.
Consider `CCCc1ccc(=O)n(Cc2c(-c3ccc(N4CC[C@H](C(C)(C)C(=O)O)C4)c(CC)n3)nnn2C)c1` [Example 16, (R)-2-(1-(2-ethyl-6-(1-methyl-5-((2-oxo-5-propylpyridin-1(2H)-yl)methyl)-1H-1,2,3-triazol-4-yl)pyridin-3-yl)pyrrolidin-3-yl)-2-methylpropanoic acid], for which the IC50 fell in the range of 0.5 to 5 µM.
As to `CCc1nc(-c2nnn(C)c2COc2nccc(C3CCC3)n2)ccc1C1CCOC(CC(=O)O)C1` (single isomer, unassigned) [Example 37, 2-(4-(6-(5-(((4-cyclobutylpyrimidin-2-yl)oxy)methyl)-1-methyl-1H-1,2,3-triazol-4-yl)-2-ethylpyridin-3-yl)tetrahydro-2H-2λ^3,4λ^3-pyran-2-yl)acetic acid], the IC50 is under 0.1 µM.
With `CCCc1ccc(=O)n(Cc2c(-c3ccc(C4CN(CC(=O)O)CC(F)(F)C4)c(C)n3)nnn2C)c1` (single isomer, unassigned) [Example 40, (R) or (S)-2-(3,3-difluoro-5-(2-methyl-6-(1-methyl-5-((2-oxo-5-propylpyridin-1(2H)-yl)methyl)-1H-1,2,3-triazol-4-yl)pyridin-3-yl)piperidin-1-yl)acetic acid], the IC50 lay within 5 to 10000 µM.
For `CCc1nc(-c2nnn(C)c2COc2nccc(C3CCC3)n2)ccc1N1CC[C@@H](CC(=O)O)C1` [Example 1, 2-[(3S)-1-[6-(5-{[(4-cyclobutylpyrimidin-2-yl)oxy]methyl}-1-methyl-1H-1,2,3-triazol-4-yl)-2-ethylpyridin-3-yl]pyrrolidin-3-yl]acetic acid], the IC50 was under 0.1 µM.
In the case of `CCCc1ccc(=O)n(Cc2c(-c3ccc(C4CC(CC(=O)O)CCO4)c(C)n3)nnn2C)c1` (stereo not drawn) [Example 27, 2-[2-(2-methyl-6-{1-methyl-5-[(2-oxo-5-propyl-1,2-dihydropyridin-1-yl)methyl]-1H-1,2,3-triazol-4-yl}pyridin-3-yl)oxan-4-yl]acetic acid], the half-maximal inhibitory concentration (IC50) was 0.5 to 5 µM.

Source of the values: patent US20250230140A1 (Viva Star Biosciences (Suzhou) Co., Ltd., priority 2021, published 2025).
